From patent US9540389B2, “Antimicrobial potentiators” (priority 2013, dated 2017)

Key:
Assay type in all cases: cell-based
[1] = test system: Escherichia coli AB1157 (WT); experiment: Checkerboard MIC assay (antibacterial agent + MBX2319); details: WT
Excerpt: (§1) • Strains and Reagents. The following strains were obtained from the Keio collection (Baba, et al.: Construction of Escherichia coli K-12 in-frame, single-gene knockout mutants: the Keio collection. In Mol Syst Biol, vol. 2, pp. 2006 0008, (2006)): JW0451 (ΔacrB::kan), JW5503 (ΔtolC::kan), JW3234 (ΔacrF::kan), JW2661 (ΔemrB::kan), JW0863 (ΔmacB::kan). The deletion mutations in each of these strains were transferred to AB1157 using P1 phage transduction (see Table 1). The construction of the E. coli cell-based reporter strain (SOS-XXX) that was used for high throughput screening is described in detail in the supplementary information. […] Irgasan was a generous gift from Ciba Speciality Chemicals, Inc. (High Point, N.C.). Hoechst 33342 (H33342) was purchased from Molecular Probes (Eugene, Oreg.). […] Luria Broth (Miller) and agar were purchased as prepared dehydrated media from Becton Dickenson (Franklin Lakes, N.J.). The compound libraries used in high-throughput screens were purchased from Chembridge (San Diego, Calif.), ChemDiv (San Diego, Calif.), and TimTec (Newark, Del.). MBX2319 was synthesized by Microbiotix, Inc. • Antibacterial Activity Assays. The minimal inhibitory concentration (MIC) of antibacterial agents and biocides were determined using the microbroth dilution method essentially as described in the CLSI protocol M7-A7 (CLSI: Method for dilution antimicrobial susceptibility testing for bacteria that grow aerobically; Approved standard-document M7-A7. In Clinical and Laboratory Standards Institute document M7-A7, Clinical and Laboratory Standards Institute, Wayne, Pa., (2006)), with the following exceptions. LB media was used instead of MHB. […] The final concentration of DMSO in each assay was 2%. […] MIC assays were performed in triplicate and the geometric mean was calculated. Checkerboard MIC assays using an EPI and an antibacterial agent were performed essentially as described (Pillai, et al.: Antimicrobial Combinations. In Antibiotics in Laboratory Medicine, ed. by V. Lorian, pp. 365-440, Lippincott Williams & Wilkins, Philadelphia, Pa., (2005)), with the same modifications used for the MIC assays described above. • Time-Kill Assays. Killing curve assays were performed essentially as described (Pillai, et al.: Antimicrobial Combinations. In Antibiotics in Laboratory Medicine, ed. by V. Lorian, pp. 365-440, Lippincott Williams & Wilkins, Philadelphia, Pa., (2005)). Exponential bacterial cultures grown in LB were diluted to a cell density of ˜1×10^7 in LB followed by addition of CIP and/or an EPI. Viability was monitored over 2-4 hours by making serial dilutions in saline and spotting 5 μl of each dilution onto the surface of an LB agar plate in triplicate. Colonies were counted after the plates were incubated at 37° C. for 16-18 hr, colony forming units (CFU) per ml were calculated, and the average and standard deviation for the three replicates was determined. For treatments that decreased CFU/ml below the limit of detection for the spot plating method, the 100 μl samples were diluted into 5 ml LB top agar, were poured onto LB agar plates, and incubated for 18 hr at 37° C. To calculate the fraction of the control for each sample, the average CFU/ml values for treated samples were divided by those from the same sample at 0 h (time=0). Each experiment was repeated at least three times, and a representative experiment is shown. • H33342 Accumulation Assay. The rate of accumulation of the fluorescent dye Hoechst 33342 (H33342), which is a substrate of a wide variety of bacterial efflux pumps (van den Berg van Saparoea, et al., Biochemistry, vol. 44, pp. 16931-16938, (2005)), can be used to estimate the activity of the major efflux pumps in E. coli and many other bacterial species. The H33342 accumulation assay was used to evaluate the effect of EPIs on the activity of the AcrAB-TolC efflux pump in several bacterial species essentially as described (Coldham, et al., J Antimicrob Chemother, vol. 65, pp. 1655-1663, (2010)). […]

[2] = test system: Escherichia coli AB1157 ΔacrB; experiment: as above
Excerpt: as §1

[3] = test system: Escherichia coli AB1157 ΔacrF; experiment: as above
Excerpt: as §1

[4] = test system: Escherichia coli AB1157 ΔtolC; experiment: as above
Excerpt: as §1

[5] = test system: Escherichia coli 285 (AB1157, CIPR, overexpresses efflux); experiment: microbe, parasite or virus in culture
Excerpt: as §1

[6] = test system: Escherichia coli 287 (AB1157, CIPR, overexpresses efflux); experiment: microbe, parasite or virus in culture
Excerpt: as §1

[7] = test system: Klebsiella pneumoniae ATCC 700603; experiment: MIC assay (microbroth dilution) ± 25 μM EPI
Excerpt: as §1

[8] = test system: Shigella flexneri ATCC 12022; experiment: MIC assay (microbroth dilution) ± 25 μM EPI
Excerpt: as §1

[9] = Escherichia coli, read-out: MIC (μg/ml) with MBX2319 at concn (μM) of: 0

## CCN1CCN(C(=O)N[C@@H](C(=O)N[C@@H]2C(=O)N3[C@@H]2SC(C)(C)[C@@H]3C(=O)O)c2ccccc2)C(=O)C1=O [Piperacillin, piperacillin]
[1]; Escherichia coli, MBX2319 0 μM, read-out: MIC (μg/ml) with MBX2319 at concn (μM) of: 0
  MIC: 4 µg/mL
[1]; MBX2319 1.56 μM
  MIC (μg/ml) with MBX2319 at concn (μM) of: 1.56: 2 µg/mL
[1]; MBX2319 3.13 μM
  MIC (μg/ml) with MBX2319 at concn (μM) of: 3.13: 1 µg/mL
[1]; MBX2319 6.25 μM
  MIC (μg/ml) with MBX2319 at concn (μM) of: 6.25: 1 µg/mL
[1]; MBX2319 25 μM
  MIC (μg/ml) with MBX2319 at concn (μM) of: 25: 0.5 µg/mL
[1]; MBX2319 50 μM
  MIC (μg/ml) with MBX2319 at concn (μM) of: 50: 0.5 µg/mL
[1]; MBX2319 […]
  MIC (μg/ml) with MBX2319 at concn (μM) of: 12.5: 0.5 µg/mL
[1]; MIC (WT)/MIC (mutant) in the absence of EPI
  MIC ratios mutant: 1
[1]; highest ratio of MIC (no compound)/MIC (MBX2319)
  MIC ratios 2319: 8
[2]; [9]
  MIC: 0.25 µg/mL
[2]; ΔacrB, MBX2319 1.56 μM
  MIC (μg/ml) with MBX2319 at concn (μM) of: 1.56: 0.125 µg/mL
[2]; ΔacrB, MBX2319 3.13 μM
  MIC (μg/ml) with MBX2319 at concn (μM) of: 3.13: 0.125 µg/mL
[2]; ΔacrB, MBX2319 6.25 μM
  MIC (μg/ml) with MBX2319 at concn (μM) of: 6.25: 0.125 µg/mL
[2]; ΔacrB, MBX2319 25 μM
  MIC (μg/ml) with MBX2319 at concn (μM) of: 25: 0.125 µg/mL
[2]; ΔacrB, MBX2319 50 μM
  MIC (μg/ml) with MBX2319 at concn (μM) of: 50: 0.125 µg/mL
[2]; ΔacrB, MBX2319 […]
  MIC (μg/ml) with MBX2319 at concn (μM) of: 12.5: 0.125 µg/mL
[2]; ΔacrB, MIC (WT)/MIC (mutant) in the absence of EPI
  MIC ratios mutant: 16
[2]; ΔacrB, highest ratio of MIC (no compound)/MIC (MBX2319)
  MIC ratios 2319: 2
[3]; [9]
  MIC: 4 µg/mL
[3]; ΔacrF, MBX2319 1.56 μM
  MIC (μg/ml) with MBX2319 at concn (μM) of: 1.56: 2 µg/mL
[3]; ΔacrF, MBX2319 3.13 μM
  MIC (μg/ml) with MBX2319 at concn (μM) of: 3.13: 1 µg/mL
[3]; ΔacrF, MBX2319 6.25 μM
  MIC (μg/ml) with MBX2319 at concn (μM) of: 6.25: 0.5 µg/mL
[3]; ΔacrF, MBX2319 25 μM
  MIC (μg/ml) with MBX2319 at concn (μM) of: 25: 0.5 µg/mL
[3]; ΔacrF, MBX2319 50 μM
  MIC (μg/ml) with MBX2319 at concn (μM) of: 50: 0.5 µg/mL
[3]; ΔacrF, MBX2319 […]
  MIC (μg/ml) with MBX2319 at concn (μM) of: 12.5: 0.5 µg/mL
[3]; ΔacrF, MIC (WT)/MIC (mutant) in the absence of EPI
  MIC ratios mutant: 1
[3]; ΔacrF, highest ratio of MIC (no compound)/MIC (MBX2319)
  MIC ratios 2319: 8
[4]; [9]
  MIC: 0.125 µg/mL
[4]; ΔtolC, MBX2319 1.56 μM
  MIC (μg/ml) with MBX2319 at concn (μM) of: 1.56: 0.125 µg/mL
[4]; ΔtolC, MBX2319 3.13 μM
  MIC (μg/ml) with MBX2319 at concn (μM) of: 3.13: 0.125 µg/mL
[4]; ΔtolC, MBX2319 6.25 μM
  MIC (μg/ml) with MBX2319 at concn (μM) of: 6.25: 0.125 µg/mL
[4]; ΔtolC, MBX2319 25 μM
  MIC (μg/ml) with MBX2319 at concn (μM) of: 25: 0.125 µg/mL
[4]; ΔtolC, MBX2319 50 μM
  MIC (μg/ml) with MBX2319 at concn (μM) of: 50: 0.125 µg/mL
[4]; ΔtolC, MBX2319 […]
  MIC (μg/ml) with MBX2319 at concn (μM) of: 12.5: 0.125 µg/mL
[4]; ΔtolC, MIC (WT)/MIC (mutant) in the absence of EPI
  MIC ratios mutant: 32
[4]; ΔtolC, highest ratio of MIC (no compound)/MIC (MBX2319)
  MIC ratios 2319: 1
[5]; 285, MBX2319 1.56 μM
  MIC (μg/ml) with MBX2319 at concn (μM) of: 1.56: 4 µg/mL
[5]; 285, MBX2319 3.13 μM
  MIC (μg/ml) with MBX2319 at concn (μM) of: 3.13: 2 µg/mL
[5]; 285, MBX2319 6.25 μM
  MIC (μg/ml) with MBX2319 at concn (μM) of: 6.25: 2 µg/mL
[5]; 285, MBX2319 25 μM
  MIC (μg/ml) with MBX2319 at concn (μM) of: 25: 2 µg/mL
[5]; 285, MBX2319 50 μM
  MIC (μg/ml) with MBX2319 at concn (μM) of: 50: 2 µg/mL
[5]; 285, MBX2319 […]
  MIC (μg/ml) with MBX2319 at concn (μM) of: 12.5: 2 µg/mL
[5]; 285, MIC (WT)/MIC (mutant) in the absence of EPI
  MIC ratios mutant: 0.5
[5]; 285, highest ratio of MIC (no compound)/MIC (MBX2319)
  MIC ratios 2319: 4
[5]; [9]
  MIC: 8 µg/mL
[6]; 287, MBX2319 1.56 μM
  MIC (μg/ml) with MBX2319 at concn (μM) of: 1.56: 8 µg/mL
[6]; 287, MBX2319 3.13 μM
  MIC (μg/ml) with MBX2319 at concn (μM) of: 3.13: 4 µg/mL
[6]; 287, MBX2319 6.25 μM
  MIC (μg/ml) with MBX2319 at concn (μM) of: 6.25: 4 µg/mL
[6]; 287, MBX2319 25 μM
  MIC (μg/ml) with MBX2319 at concn (μM) of: 25: 2 µg/mL
[6]; 287, MBX2319 50 μM
  MIC (μg/ml) with MBX2319 at concn (μM) of: 50: 2 µg/mL
[6]; 287, MBX2319 […]
  MIC (μg/ml) with MBX2319 at concn (μM) of: 12.5: 2 µg/mL
[6]; 287, MIC (WT)/MIC (mutant) in the absence of EPI
  MIC ratios mutant: 0.25
[6]; 287, highest ratio of MIC (no compound)/MIC (MBX2319)
  MIC ratios 2319: 8
[6]; [9]
  MIC: 16 µg/mL
[7]; + 25 μM MBX2319
  MIC (μg/ml) ± EPI: MBX2319: 113 µg/mL
[7]; + 25 μM PAβN
  MIC (μg/ml) ± EPI: PAβN: 113 µg/mL
[7]; ATCC700603, no EPI, read-out: MIC (μg/ml) ± EPI: None
  MIC: 113 µg/mL
[7]; MIC no cmpd/MIC + 25 μM MBX2319
  MIC Ratio MBX2319: 1
[7]; MIC no cmpd/MIC + 25 μM PAβN
  MIC Ratio PAβN: 1
[8]; Shigella flexneri ATCC 12022, + 25 μM MBX2319
  MIC (μg/ml) ± EPI: MBX2319: 0.25 µg/mL
[8]; Shigella flexneri ATCC 12022, + 25 μM PAβN
  MIC (μg/ml) ± EPI: PAβN: 1 µg/mL
[8]; Shigella flexneri ATCC 12022, MIC no cmpd/MIC + 25 μM MBX2319
  MIC Ratio MBX2319: 4
[8]; Shigella flexneri ATCC 12022, MIC no cmpd/MIC + 25 μM PAβN
  MIC Ratio PAβN: 1
[8]; Shigella flexneri, ATCC12022, read-out: MIC (μg/ml) ± EPI: None
  MIC: 1 µg/mL
